Measurements published in publication PMC4626217 (Bioorganic & medicinal chemistry, 2015).

Legend:
HDACs 1–3 = assay: HDAC biochemical assay, text summary over HDACs 1–3; parameters: species or system human; conditions: summary of Table 1; for IC50: read-out: IC50 for HDACs 1–3; for IC50 range in words: HDACs 1–3 where stated, unit inside the printed words
HDAC1 = HDAC1 (Homo sapiens, UniProt Q13547); assay: HDAC biochemical assay; conditions: relative to compound 6
[1] = tested on: 797 NUT midline carcinoma cell line; assay: 797 cell viability; assay type: cell-based; conditions: 48 hours incubation, ATPLite; ± standard error of LogIC50
[2] = tested on: 10326 NUT midline carcinoma cell line; assay: 10326 cell viability; assay type: cell-based; conditions: 48 hours incubation, ATPLite; ± standard error of LogIC50

HDAC1, sequence (Q13547 whole entry): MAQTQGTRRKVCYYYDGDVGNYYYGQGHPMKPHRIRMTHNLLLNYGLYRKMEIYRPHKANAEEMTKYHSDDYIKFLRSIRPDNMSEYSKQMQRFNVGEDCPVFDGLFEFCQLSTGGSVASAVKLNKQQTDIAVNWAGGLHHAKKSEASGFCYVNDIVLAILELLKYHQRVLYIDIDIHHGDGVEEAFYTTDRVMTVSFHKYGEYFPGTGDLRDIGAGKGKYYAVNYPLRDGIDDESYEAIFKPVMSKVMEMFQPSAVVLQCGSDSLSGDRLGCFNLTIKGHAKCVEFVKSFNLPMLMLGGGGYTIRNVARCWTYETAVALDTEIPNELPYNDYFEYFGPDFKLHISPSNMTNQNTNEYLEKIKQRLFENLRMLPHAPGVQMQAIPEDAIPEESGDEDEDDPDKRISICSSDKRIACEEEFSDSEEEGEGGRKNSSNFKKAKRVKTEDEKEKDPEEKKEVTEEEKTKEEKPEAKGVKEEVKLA

Row | IC50 range in words (HDACs 1–3) | fold decrease in activity in HDAC1 in going from 6 to its amide isostere (HDAC1) [fold] | SMILES | IC50 (HDACs 1–3) [nM] | 797 LogIC50 [1] | 10326 LogIC50 [2]
1 | – | – | CC(C)[C@@H]1NC(=O)[C@]2(C)CSC(=N2)c2csc(n2)CNC(=O)C[C@@H](/C=C/CCS)OC1=O [Compound 2, Largazole thiol, reference compound] | < 25 | – | –
2 | single digit nM range | – | CC(C)[C@@H]1NC(=O)[C@]2(C)CSC(=N2)c2ccnc(c2)CNC(=O)C[C@@H](/C=C/CCS)OC1=O [Compound 8, Depsipeptide pyridyl “OUT” thiol] | < 25 | – | –
3 | double-digit nM range | 16 | CC(C)[C@@H]1NC(=O)[C@]2(C)CSC(=N2)c2cccc(n2)CNC(=O)C[C@@H](/C=C/CCS)NC1=O [Compound 10, Peptide isostere pyridyl “IN” thiol] | – | – | –
4 | – | – | CC(C)[C@@H]1NC(=O)[C@]2(C)CSC(=N2)c2csc(n2)CNC(=O)C[C@@H](/C=C/CCS)NC1=O [Compound 4, Largazole peptide isostere thiol] | < 25 | −5.761 ± 0.05449 | −4.923 ± 0.9900
5 | single digit nM range | – | CC(C)[C@@H]1NC(=O)[C@]2(C)CSC(=N2)c2cccc(n2)CNC(=O)C[C@@H](/C=C/CCS)OC1=O [Compound 6, Depsipeptide pyridyl “IN” thiol] | < 25 | – | –

Row | SMILES | IC50 range in words (HDACs 1–3) | fold decrease in activity in HDAC1 in going from 6 to its amide isostere (HDAC1) [fold] | IC50 (HDACs 1–3) [nM] | 797 LogIC50 [1] | 10326 LogIC50 [2]
6 | CC(C)[C@@H]1NC(=O)[C@]2(C)CSC(=N2)c2ccnc(c2)CNC(=O)C[C@@H](/C=C/CCS)NC1=O [Compound 12, Peptide isostere pyridyl “OUT” thiol] | double-digit nM range | – | < 25 | – | –
